Measurements reported in ChEMBL document CHEMBL1201862, “PubChem BioAssay data set” (2004).
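Protocol summary: plate cells (96-well), add compound at 5 concentrations, incubate 48 h, interpolate endpoints linearly. At the GI50, growth is halved.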 Active and inactive are the calls of the source. Cut-off read from the data, not from the text of the source: active = GI50 up to about 1.1 µM and inactive = higher.

What was measured:
Test in all cases: DTP human tumour cell line panel, 48 h
[1] = test system: MOLT-4
[2] = test system: DU-145
[3] = test system: IGROV-1
[4] = test system: SK-MEL-28
[5] = test system: RPMI-8226
[6] = test system: OVCAR-4
[7] = test system: HL-60
[8] = test system: A549
[9] = test system: A498
[10] = test system: COLO 205
[11] = test system: 786-0
[12] = test system: UO-31
[13] = test system: SF-539
[14] = test system: SK-OV-3
[15] = test system: PC-3
[16] = test system: NCI/ADR-RES
[17] = test system: HOP-92
[18] = test system: MDA-N
[19] = test system: BT-549
[20] = test system: SNB-19

Measured: GI50

NS(=O)(=O)c1cc(C(=O)O)c(O)c2ccccc12
inactive: [1] > 100 µM | [2] > 100 µM | [3] > 100 µM | [4] > 100 µM | [5] > 100 µM | [6] > 100 µM | [7] > 100 µM | [8] > 100 µM | [9] > 100 µM | [10] > 100 µM | [11] > 100 µM | [12] > 100 µM | [13] > 100 µM | [14] > 100 µM | [15] > 100 µM | [16] > 100 µM | [17] > 100 µM | [18] > 100 µM | [19] > 100 µM | [20] > 100 µM

CC(=O)NCCC1CN(C(=O)/C=C\I)c2ccccc21 (stereo not given)
inactive: [1] 5.53 µM | [2] 13.9 µM | [3] 15.1 µM | [4] 16 µM | [5] 2.08 µM | [6] 18.9 µM | [7] 2.7 µM | [8] 13.8 µM | [9] 18.4 µM | [10] 11.7 µM | [11] 10.6 µM | [12] 7.69 µM | [13] 5.32 µM | [14] 20 µM | [15] 11.7 µM | [16] 25.5 µM | [17] 21.7 µM | [18] 12.6 µM | [19] 21.6 µM | [20] 20.4 µM

CC[C@@H]1CC[C@@H]2[C@H](CC[C@]3(C)[C@@H](OC(C)=O)CC[C@@H]23)[C@H]1C(=O)OC
inactive: [1] 19.5 µM | [2] 27.4 µM | [3] 24.8 µM | [4] 32.2 µM | [5] 19.6 µM | [6] 19.9 µM | [7] 13.3 µM | [8] 24.4 µM | [9] > 100 µM | [10] 16 µM | [11] 23.4 µM | [12] 33.7 µM | [13] 19.2 µM | [14] > 100 µM | [15] 23.7 µM | [16] 26.9 µM | [17] 13.4 µM | [18] 19.5 µM | [19] 34.4 µM | [20] 25.4 µM

Cc1cc2nc3c(C#N)c4c(c(-c5ccc(Cl)cc5)n3c2cc1C)CCC4
inactive: [1] 25.1 µM | [2] 20.9 µM | [3] 18.4 µM | [4] 23.7 µM | [5] 26.5 µM | [6] 38.5 µM | [7] 21.4 µM | [8] 34.5 µM | [9] 28.1 µM | [10] 19.8 µM | [11] 19.4 µM | [12] 19.9 µM | [13] 29.2 µM | [14] 18.2 µM | [15] 29.2 µM | [16] 41.1 µM | [17] 20.3 µM | [18] 28.8 µM | [19] 20.4 µM | [20] 20.8 µM
